Assay results: ChEMBL document CHEMBL1201862, “PubChem BioAssay data set” (2004)
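Briefly, cells in 96-well plates were exposed to five compound concentrations for 48 h, and endpoints were estimated by linear interpolation. GI50 marks 50% less growth.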 The source made the active and inactive calls. No stated cut-off is given here; in the data, active = GI50 up to about 1.1 µM and inactive = higher.

Experiments:
Assay in all cases: NCI tumour cell line growth inhibition, 48 h
786-0 = system: 786-0
A498 = system: A498
A549 = system: A549
ACHN = system: ACHN
BT-549 = system: BT-549
CAKI-1 = system: CAKI-1
CCRF-CEM = system: CCRF-CEM
COLO 205 = system: COLO 205
DU-145 = system: DU-145
EKVX = system: EKVX
HCC 2998 = system: HCC 2998
HCT-116 = system: HCT-116
HCT-15 = system: HCT-15
HL-60 = system: HL-60
HOP-62 = system: HOP-62
HOP-92 = system: HOP-92
HT-29 = system: HT-29
Hs-578T = system: Hs-578T
IGROV-1 = system: IGROV-1
K562 = system: K562
KM12 = system: KM12
LOX IMVI = system: LOX IMVI
M14 = system: M14
MCF7 = system: MCF7
MDA-MB-435 = system: MDA-MB-435
MDA-N = system: MDA-N
MOLT-4 = system: MOLT-4
Malme-3M = system: Malme-3M
NCI-H226 = system: NCI-H226
NCI-H23 = system: NCI-H23
NCI-H460 = system: NCI-H460
NCI-H522 = system: NCI-H522
NCI/ADR-RES = system: NCI/ADR-RES
OVCAR-3 = system: OVCAR-3
OVCAR-4 = system: OVCAR-4
OVCAR-5 = system: OVCAR-5
OVCAR-8 = system: OVCAR-8
PC-3 = system: PC-3
RPMI-8226 = system: RPMI-8226
RXF 393 = system: RXF 393
SF-268 = system: SF-268
SF-295 = system: SF-295
SF-539 = system: SF-539
SK-MEL-28 = system: SK-MEL-28
SK-MEL-2 = system: SK-MEL-2
SK-MEL-5 = system: SK-MEL-5
SK-OV-3 = system: SK-OV-3
SN12C = system: SN12C
SNB-19 = system: SNB-19
SNB-75 = system: SNB-75
SR = system: SR
SW-620 = system: SW-620
T47D = system: T47D
UACC-257 = system: UACC-257
UACC-62 = system: UACC-62
UO-31 = system: UO-31
TK-10 = system: TK-10
U-251 = system: U-251

COc1ccc(C)cc1Nc1nnc(-c2ccccc2N)s1
GI50 (786-0): 51.2 µM (inactive) | GI50 (A498): 74.8 µM (inactive) | GI50 (A549): 47.4 µM (inactive) | GI50 (ACHN): 51.8 µM (inactive) | GI50 (BT-549): 62.7 µM (inactive) | GI50 (CAKI-1): 28.4 µM (inactive) | GI50 (CCRF-CEM): 32.3 µM (inactive) | GI50 (COLO 205): 36.8 µM (inactive) | GI50 (DU-145): > 100 µM (inactive) | GI50 (EKVX): 24.7 µM (inactive) | GI50 (HCC 2998): 30 µM (inactive) | GI50 (HCT-116): 37.3 µM (inactive) | GI50 (HCT-15): 45.2 µM | GI50 (HL-60): 19.5 µM (inactive) | GI50 (HOP-62): 44.7 µM (inactive) | GI50 (HOP-92): 21.3 µM (inactive) | GI50 (HT-29): 41.5 µM (inactive) | GI50 (Hs-578T): 36.2 µM (inactive) | GI50 (IGROV-1): 18 µM (inactive) | GI50 (K562): 13.7 µM (inactive) | GI50 (KM12): 28.4 µM (inactive) | GI50 (LOX IMVI): 47.1 µM (inactive) | GI50 (M14): 40.2 µM (inactive) | GI50 (MCF7): 37.8 µM (inactive) | GI50 (MDA-MB-435): 28.6 µM (inactive) | GI50 (MDA-N): 28.9 µM (inactive) | GI50 (MOLT-4): 2.41 µM (inactive) | GI50 (Malme-3M): 40.6 µM (inactive) | GI50 (NCI-H226): 43 µM (inactive) | GI50 (NCI-H23): 34.3 µM (inactive) | GI50 (NCI-H460): 31 µM (inactive) | GI50 (NCI-H522): 20.2 µM (inactive) | GI50 (NCI/ADR-RES): 34.8 µM (inactive) | GI50 (OVCAR-3): 37.5 µM (inactive) | GI50 (OVCAR-4): 26.1 µM (inactive) | GI50 (OVCAR-5): 89.9 µM (inactive) | GI50 (OVCAR-8): 35.7 µM (inactive) | GI50 (PC-3): 35 µM (inactive) | GI50 (RPMI-8226): 18.1 µM (inactive) | GI50 (RXF 393): 55.1 µM (inactive) | GI50 (SF-268): > 100 µM (inactive) | GI50 (SF-295): 34 µM (inactive) | GI50 (SF-539): 82.8 µM (inactive) | GI50 (SK-MEL-28): 53.3 µM (inactive) | GI50 (SK-MEL-2): 19.5 µM (inactive) | GI50 (SK-MEL-5): 13.7 µM (inactive) | GI50 (SK-OV-3): > 100 µM (inactive) | GI50 (SN12C): 32 µM (inactive) | GI50 (SNB-19): > 100 µM (inactive) | GI50 (SNB-75): 55 µM (inactive) | GI50 (SR): 13.4 µM (inactive) | GI50 (SW-620): 36.1 µM (inactive) | GI50 (T47D): 49.2 µM (inactive) | GI50 (UACC-257): 37.3 µM (inactive) | GI50 (UACC-62): 37.3 µM (inactive) | GI50 (UO-31): 36.8 µM (inactive)

CC(C)(C)SC1=CCC[C@@H](P(=O)(c2ccccc2)c2ccccc2)[C@@H]2CCC[C@@H]12
GI50 (786-0): 16.7 µM (inactive) | GI50 (A498): 15.8 µM (inactive) | GI50 (A549): 17.2 µM (inactive) | GI50 (ACHN): 16.5 µM (inactive) | GI50 (BT-549): 17.8 µM (inactive) | GI50 (CAKI-1): 13.8 µM (inactive) | GI50 (CCRF-CEM): 24.6 µM (inactive) | GI50 (COLO 205): 18 µM (inactive) | GI50 (DU-145): 17.2 µM (inactive) | GI50 (EKVX): 18.6 µM (inactive) | GI50 (HCC 2998): 16.2 µM (inactive) | GI50 (HCT-116): 14.3 µM (inactive) | GI50 (HCT-15): 16.6 µM | GI50 (HL-60): 20 µM (inactive) | GI50 (HOP-62): 17 µM (inactive) | GI50 (HOP-92): 13.7 µM (inactive) | GI50 (HT-29): 14.2 µM (inactive) | GI50 (Hs-578T): 20.7 µM (inactive) | GI50 (IGROV-1): 17.2 µM (inactive) | GI50 (K562): 19.3 µM (inactive) | GI50 (KM12): 16.3 µM (inactive) | GI50 (LOX IMVI): 17.5 µM (inactive) | GI50 (M14): 15.3 µM (inactive) | GI50 (MCF7): 16.2 µM (inactive) | GI50 (MDA-MB-435): 15 µM (inactive) | GI50 (MDA-N): 16.1 µM (inactive) | GI50 (MOLT-4): 16 µM (inactive) | GI50 (Malme-3M): 19.6 µM (inactive) | GI50 (NCI-H226): 17.7 µM (inactive) | GI50 (NCI-H23): 17.2 µM (inactive) | GI50 (NCI-H460): 15.7 µM (inactive) | GI50 (NCI-H522): 15.7 µM (inactive) | GI50 (NCI/ADR-RES): 17.2 µM (inactive) | GI50 (OVCAR-3): 17 µM (inactive) | GI50 (OVCAR-4): 14.3 µM (inactive) | GI50 (OVCAR-5): 13.6 µM (inactive) | GI50 (OVCAR-8): 18.3 µM (inactive) | GI50 (PC-3): 14 µM (inactive) | GI50 (RPMI-8226): 19.1 µM (inactive) | GI50 (RXF 393): 13.8 µM (inactive) | GI50 (SF-268): 17.8 µM (inactive) | GI50 (SF-295): 15.1 µM (inactive) | GI50 (SF-539): 18.8 µM (inactive) | GI50 (SK-MEL-28): 24.3 µM (inactive) | GI50 (SK-MEL-2): 16.5 µM (inactive) | GI50 (SK-MEL-5): 17.7 µM (inactive) | GI50 (SK-OV-3): 15.9 µM (inactive) | GI50 (SN12C): 15.7 µM (inactive) | GI50 (SNB-19): 16.1 µM (inactive) | GI50 (SNB-75): 11.8 µM (inactive) | GI50 (SR): 17 µM (inactive) | GI50 (SW-620): 27 µM (inactive) | GI50 (T47D): 14 µM (inactive) | GI50 (TK-10): 17.5 µM (inactive) | GI50 (U-251): 17.5 µM (inactive) | GI50 (UACC-257): 17 µM (inactive) | GI50 (UACC-62): 12.4 µM (inactive) | GI50 (UO-31): 16.5 µM (inactive)
